According to US20080114007A1 (priority 2006, published 2008):

Target: CSF-1R (Homo sapiens, UniProt P07333)
Assay: Peptide (non-phosphorylated) assay, fluorescence polarization competition immunoassay
Type: biochemical
Conditions: 0.7 nM CSF-1R, 308 μM SYEGNSYTFIDPTQ peptide, 1 mM ATP, 80 min; mean of at least three determinations; read-out: c-fms Peptide IC50
Outline: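 Read-out is fluorescence polarization: after EDTA quench, anti-phosphotyrosine antibody plus PTK green tracer compete with the phosphorylated peptide for 30 min. The CSF-1R reaction itself ran 80 min at room temperature after ATP addition. DMSO (4%) wells served as controls, positive controls pre-treated with EDTA.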

Chain of CSF-1R (P07333 20-972): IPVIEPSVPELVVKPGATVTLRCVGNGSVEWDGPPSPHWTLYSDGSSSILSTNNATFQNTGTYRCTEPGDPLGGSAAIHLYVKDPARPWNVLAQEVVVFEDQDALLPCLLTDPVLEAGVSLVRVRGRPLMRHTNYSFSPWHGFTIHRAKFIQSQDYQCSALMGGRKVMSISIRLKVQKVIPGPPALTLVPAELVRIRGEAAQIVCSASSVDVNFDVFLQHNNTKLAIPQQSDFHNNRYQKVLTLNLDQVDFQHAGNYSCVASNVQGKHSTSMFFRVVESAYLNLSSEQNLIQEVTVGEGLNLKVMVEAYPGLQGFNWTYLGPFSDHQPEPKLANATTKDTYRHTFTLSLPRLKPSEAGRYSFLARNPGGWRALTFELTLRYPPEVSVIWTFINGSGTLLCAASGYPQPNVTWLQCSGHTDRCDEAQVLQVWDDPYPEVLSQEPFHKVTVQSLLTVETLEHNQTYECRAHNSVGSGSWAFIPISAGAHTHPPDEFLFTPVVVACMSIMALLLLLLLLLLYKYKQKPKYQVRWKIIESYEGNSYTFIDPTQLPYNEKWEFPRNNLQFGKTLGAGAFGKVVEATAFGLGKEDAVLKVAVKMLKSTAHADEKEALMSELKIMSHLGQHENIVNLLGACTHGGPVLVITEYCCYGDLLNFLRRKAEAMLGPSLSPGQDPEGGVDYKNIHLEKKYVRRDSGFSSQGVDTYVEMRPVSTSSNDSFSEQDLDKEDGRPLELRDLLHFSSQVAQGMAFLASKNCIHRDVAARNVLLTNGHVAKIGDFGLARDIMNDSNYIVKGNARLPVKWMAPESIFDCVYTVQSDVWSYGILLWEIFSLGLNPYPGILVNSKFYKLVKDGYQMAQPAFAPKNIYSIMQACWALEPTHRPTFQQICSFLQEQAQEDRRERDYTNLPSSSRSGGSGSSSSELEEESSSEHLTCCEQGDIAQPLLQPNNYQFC

Row | SMILES | IC50 [nM]
1 | CONC(=O)c1cn(-c2ccc3c(c2)CCC3)c2nc(Nc3ccc(C[C@H]4COC(=O)N4)cc3)ncc2c1=O [Cpd 67, (S)-8-indan-5-yl-5-oxo-2-[4-(2-oxo-oxazolidin-4-ylmethyl)-phenylamino]-5,8-dihydro-pyrido[2,3-d]pyrimidine-6-carboxylic acid methoxy-amide] | 1
2 | CCc1ccc(-n2cc(C(=O)NOC)c(=O)c3cnc(Nc4ccc5[nH]ccc5c4)nc32)cc1 [Cpd 285, 8-(4-ethyl-phenyl)-2-(1H-indol-5-ylamino)-5-oxo-5,8-dihydro-pyrido[2,3-d]pyrimidine-6-carboxylic acid methoxy-amide] | 0.8
3 | CCONC(=O)c1cn(-c2ccc3c(c2)CCC3)c2nc(Nc3ccc(C4CCN(C)CC4)cc3)ncc2c1=O [Cpd 139, 8-indan-5-yl-2-[4-(1-methyl-piperidin-4-yl)-phenylamino]-5-oxo-5,8-dihydro-pyrido[2,3-d]pyrimidine-6-carboxylic acid ethoxy-amide] | 1
4 | CONC(=O)c1cn(-c2ccc3c(c2)CCC3)c2nc(Nc3ccc(CCN4CCN(C(=O)C(F)(F)F)CC4)cc3)ncc2c1=O [Cpd 148, 8-indan-5-yl-5-oxo-2-(4-{2-[4-(2,2,2-trifluoro-acetyl)-piperazin-1-yl]-ethyl}-phenylamino)-5,8-dihydro-pyrido[2,3-d]pyrimidine-6-carboxylic acid methoxy-amide] | 1.2
5 | CC(C)ONC(=O)c1cn(C2CCCCC2)c2nc(Nc3ccc(CCN4CCCC4)cc3)ncc2c1=O [Cpd 16, 8-cyclohexyl-5-oxo-2-[4-(2-pyrrolidin-1-yl-ethyl)-phenylamino]-5,8-dihydro-pyrido[2,3-d]pyrimidine-6-carboxylic acid isopropoxy-amide] | 0.64
6 | O=C(NO)c1cn(C2CCCCC2)c2nc(Nc3ccc(CCN4CCCC4)cc3)ncc2c1=O [Cpd 17, 8-cyclohexyl-5-oxo-2-[4-(2-pyrrolidin-1-yl-ethyl)-phenylamino]-5,8-dihydro-pyrido[2,3-d]pyrimidine-6-carboxylic acid hydroxyamide] | 0.94
7 | CONC(=O)c1cn(C2CCCCC2)c2nc(Nc3ccc(C(=O)N4CCCC4)cc3)ncc2c1=O [Cpd 11, 8-cyclohexyl-5-oxo-2-[4-(pyrrolidine-1-carbonyl)-phenylamino]-5,8-dihydro-pyrido[2,3-d]pyrimidine-6-carboxylic acid methoxy-amide] | > 300
8 | CCc1ccc(-n2cc(C(=O)NOC)c(=O)c3cnc(Nc4ccc(CCN5CCC[C@@H](O)C5)cc4)nc32)cc1 [Cpd 240, 8-(4-ethyl-phenyl)-2-(4-{2-[(3R)-(3-hydroxy-piperidin-1-yl)]-ethyl}-phenylamino)-5-oxo-5,8-dihydro-pyrido[2,3-d]pyrimidine-6-carboxylic acid methoxy-amide] | 0.28
9 | CCc1ccc(-n2cc(C(=O)NOC)c(=O)c3cnc(Nc4ccc(C5CCCCN5)cc4)nc32)cc1 (stereo not drawn) [Cpd 242, 8-(4-ethyl-phenyl)-5-oxo-2-(4-piperidin-2-yl-phenylamino)-5,8-dihydro-pyrido[2,3-d]pyrimidine-6-carboxylic acid methoxy-amide] | 0.59
10 | CCc1ccc(-n2cc(C(=O)NOC)c(=O)c3cnc(Nc4ccc([C@]5(O)CCN(C)C[C@H]5O)cc4)nc32)cc1 [Cpd 249, 2-{4-[(3R,4R)-(3,4-dihydroxy-1-methyl-piperidin-4-yl)]-phenylamino}-8-(4-ethyl-phenyl)-5-oxo-5,8-dihydro-pyrido[2,3-d]pyrimidine-6-carboxylic acid methoxy-amide] | 0.55
11 | CCc1ccc(-n2cc(C(=O)NOC)c(=O)c3cnc(Nc4ccc5cn[nH]c5c4)nc32)cc1 [Cpd 288, 8-(4-ethyl-phenyl)-2-(1H-indazol-6-ylamino)-5-oxo-5,8-dihydro-pyrido[2,3-d]pyrimidine-6-carboxylic acid methoxy-amide] | 1.5
12 | CCc1ccc(-n2cc(C(=O)NOC)c(=O)c3cnc(Nc4ccc(CCN5CCCC(F)(F)C5)cc4)nc32)cc1 [Cpd 232, 2-{4-[2-(3,3-difluoro-piperidin-1-yl)-ethyl]-phenylamino}-8-(4-ethyl-phenyl)-5-oxo-5,8-dihydro-pyrido[2,3-d]pyrimidine-6-carboxylic acid methoxy-amide] | 0.72
13 | CN1CCC(c2ccc(Nc3ncc4c(=O)c(C(=O)O)cn(-c5ccc6c(c5)CCC6)c4n3)cc2)CC1 [Cpd 222, 8-indan-5-yl-2-[4-(1-methyl-piperidin-4-yl)-phenylamino]-5-oxo-5,8-dihydro-pyrido[2,3-d]pyrimidine-6-carboxylic acid] | 29
14 | CCONC(=O)c1cn(-c2ccc(CC)cc2)c2nc(Nc3ccc(C4CCN(CC)CC4)cc3)ncc2c1=O [Cpd 181, 8-(4-ethyl-phenyl)-2-[4-(1-ethyl-piperidin-4-yl)-phenylamino]-5-oxo-5,8-dihydro-pyrido[2,3-d]pyrimidine-6-carboxylic acid ethoxy-amide] | 0.2
15 | CONC(=O)c1cn(-c2ccc3c(c2)C=CC3)c2nc(Nc3ccc(C4CCN(C)CC4)cc3)ncc2c1=O [Cpd 259, 8-(1H-inden-5-yl)-2-[4-(1-methyl-piperidin-4-yl)-phenylamino]-5-oxo-5,8-dihydro-pyrido[2,3-d]pyrimidine-6-carboxylic acid methoxy-amide] | 0.7

Now from value to compound:

Row | IC50 [nM] | SMILES
16 | 0.54 | CONC(=O)c1cn(-c2ccc3c(c2)CCC3)c2nc(Nc3ccc(C4=CCN(C)CC4)cc3)ncc2c1=O [Cpd 235, 8-indan-5-yl-2-[4-(1-methyl-1,2,3,6-tetrahydro-pyridin-4-yl)-phenylamino]-5-oxo-5,8-dihydro-pyrido[2,3-d]pyrimidine-6-carboxylic acid methoxy-amide]
17 | 0.53 | CONC(=O)c1cn(-c2ccc3c(c2)CCC3)c2nc(Nc3ccc(C4CCNCC4)cc3)ncc2c1=O [Cpd 75, 8-indan-5-yl-5-oxo-2-(4-piperidin-4-yl-phenylamino)-5,8-dihydro-pyrido[2,3-d]pyrimidine-6-carboxylic acid methoxy-amide]
18 | 0.67 | CONC(=O)c1cn(-c2ccc3c(c2)CCC3)c2nc(Nc3ccc(CCN4CC[C@H](O)C4)cc3)ncc2c1=O [Cpd 255, 2-(4-{2-[(3S)-(3-hydroxy-pyrrolidin-1-yl)]-ethyl}-phenylamino)-8-indan-5-yl-5-oxo-5,8-dihydro-pyrido[2,3-d]pyrimidine-6-carboxylic acid methoxy-amide]
19 | 2.5 | CCN1CCCC1CNC(=O)c1cccc(Nc2ncc3c(=O)c(C(=O)NOC)cn(-c4ccc5c(c4)CCC5)c3n2)c1 (stereo not drawn) [Cpd 193, 2-{3-[(1-ethyl-pyrrolidin-2-ylmethyl)-carbamoyl]-phenylamino}-8-indan-5-yl-5-oxo-5,8-dihydro-pyrido[2,3-d]pyrimidine-6-carboxylic acid methoxy-amide]
20 | 1.7 | CONC(=O)c1cn(-c2ccc3c(c2)CCC3)c2nc(Nc3ccc(CCN4CCCC(F)(F)C4)cc3)ncc2c1=O
21 | 0.72 | CONC(=O)c1cn(-c2ccc3c(c2)CCC3)c2nc(Nc3ccc(C4CCN(CCS(C)(=O)=O)CC4)cc3)ncc2c1=O [Cpd 78, 8-indan-5-yl-2-{4-[1-(2-methanesulfonyl-ethyl)-piperidin-4-yl]-phenylamino}-5-oxo-5,8-dihydro-pyrido[2,3-d]pyrimidine-6-carboxylic acid methoxy-amide]
